Data as given in PubChem BioAssay AID192 (DTP/NCI, 2004).
Inconclusive results and toxic doses are left out. How the source made its calls: active means survival T/C of 150% or more; inactive means T/C below 125% in these data.

System: BDF1 mice, B16 melanoma ip, median survival T/C
Test: NCI In Vivo Anticancer Drug Screen. Data for tumor model B16 Melanoma (intraperitoneal) in B6D2F1 (BDF1) mice
Settings: endpoint: median survival time, higher = longer survival
Outline: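 Values are ratios of treated (T) to vehicle-control (C) measurements of survival or tumor size in tumor-bearing mice.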

[1] = dose: 25.0 mg/kg/injection, schedule: Q01DX009 (ip), vehicle: saline
[2] = dose: 50.0 mg/kg/injection, schedule: Q01DX009 (ip), vehicle: saline
[3] = dose: 100.0 mg/kg/injection, schedule: Q01DX009 (ip), vehicle: saline
[4] = dose: 100.0 mg/kg/injection, schedule: Q01DX009 (ip), vehicle: saline with Tween-80
[5] = dose: 200.0 mg/kg/injection, schedule: Q01DX009 (ip), vehicle: saline with Tween-80
[6] = dose: 12.5 mg/kg/injection, schedule: Q01DX009 (ip), vehicle: saline with Tween-80
[7] = dose: 25.0 mg/kg/injection, schedule: Q01DX009 (ip), vehicle: saline with Tween-80
[8] = dose: 50.0 mg/kg/injection, schedule: Q01DX009 (ip), vehicle: saline with Tween-80
[9] = dose: 12.5 mg/kg/injection, schedule: Q01DX009 (ip), vehicle: saline
[10] = dose: 6.25 mg/kg/injection, schedule: Q01DX009 (ip), vehicle: Klucel (hydroxypropylcellulose) (HPC)
[11] = dose: 12.5 mg/kg/injection, schedule: Q01DX009 (ip), vehicle: Klucel (hydroxypropylcellulose) (HPC)
[12] = dose: 25.0 mg/kg/injection, schedule: Q01DX009 (ip), vehicle: Klucel (hydroxypropylcellulose) (HPC)
[13] = dose: 50.0 mg/kg/injection, schedule: Q01DX009 (ip), vehicle: Klucel (hydroxypropylcellulose) (HPC)
[14] = dose: 100.0 mg/kg/injection, schedule: Q01DX009 (ip), vehicle: Klucel (hydroxypropylcellulose) (HPC)

Measured: T/C

CC1CCC[N-]C1.CC1CCC[N-]C1.CC1CCC[N-]C1.CC1CCC[N-]C1.[Cl][Rh][Cl] (centres undefined)
inactive: dose: 3.0 mg/kg/injection, schedule: Q01DX009 (ip), vehicle: Klucel (hydroxypropylcellulose) (HPC) 111 % of control | dose: 6.0 mg/kg/injection, schedule: Q01DX009 (ip), vehicle: Klucel (hydroxypropylcellulose) (HPC) 110 % of control | dose: 12.0 mg/kg/injection, schedule: Q01DX009 (ip), vehicle: Klucel (hydroxypropylcellulose) (HPC) 115 % of control

COc1cccc(/C=C/C(=O)O)c1OC
inactive: dose: 50.0 mg/kg/injection, schedule: Q01DX009 (ip), vehicle: other 101 % of control | dose: 100.0 mg/kg/injection, schedule: Q01DX009 (ip), vehicle: other 107 % of control | dose: 200.0 mg/kg/injection, schedule: Q01DX009 (ip), vehicle: other 98 % of control | dose: 400.0 mg/kg/injection, schedule: Q01DX009 (ip), vehicle: other 93 % of control

CC1(C)N=C(N)N=C(N)N1c1ccc(OCC(=O)N2CCOCC2)c(Cl)c1
inactive: [1] 104 % of control | [2] 93 % of control | [3] 98 % of control

Cc1ccc(NC(=O)c2ccccc2Cl)cc1
inactive: [4] 105 % of control | [5] 97 % of control

C1OCN2CSCC12 (centres undefined)
inactive: [6] 108 % of control | [7] 109 % of control | [8] 101 % of control | [4] 106 % of control

C=CCc1cn(C2CC(O)C(CO)O2)c(=O)[nH]c1=O (centres undefined)
inactive: [9] 104 % of control | [1] 105 % of control | [2] 104 % of control | [3] 105 % of control | dose: 200.0 mg/kg/injection, schedule: Q01DX009 (ip), vehicle: saline 105 % of control | dose: 400.0 mg/kg/injection, schedule: Q01DX009 (ip), vehicle: saline 107 % of control

Nc1c(Cl)c(Cl)nc(C(=O)O)c1Cl
inactive: [10] 96 % of control | [11] 108 % of control | [12] 108 % of control | dose: 25.0 mg/kg/injection, schedule: Q02DX009 (ip), vehicle: Klucel (hydroxypropylcellulose) (HPC) 95 % of control | [13] 96 % of control | dose: 50.0 mg/kg/injection, schedule: Q02DX009 (ip), vehicle: Klucel (hydroxypropylcellulose) (HPC) 91 % of control | dose: 50.0 mg/kg/injection, schedule: Q02DX009 (ip), vehicle: other 95 % of control | [14] 102 % of control | dose: 100.0 mg/kg/injection, schedule: Q02DX009 (ip), vehicle: other 86 % of control | dose: 200.0 mg/kg/injection, schedule: Q01DX009 (ip), vehicle: Klucel (hydroxypropylcellulose) (HPC) 98 % of control

O=C1CCCC(=O)C1C(C[N+](=O)[O-])c1ccccc1 (centres undefined)
inactive: [11] 86 % of control | [12] 94 % of control | [13] 107 % of control | [14] 107 % of control

IP(c1ccccc1)(c1ccccc1)(c1ccccc1)N1C2CCCCC21 (centres undefined)
inactive: dose: 0.15 mg/kg/injection, schedule: Q01DX009 (ip), vehicle: saline 115 % of control | dose: 0.3 mg/kg/injection, schedule: Q01DX009 (ip), vehicle: saline 111 % of control | dose: 0.6 mg/kg/injection, schedule: Q01DX009 (ip), vehicle: saline 111 % of control | dose: 1.2 mg/kg/injection, schedule: Q01DX009 (ip), vehicle: saline 92 % of control

CCCCCC(=O)c1ccc(O)cc1O
inactive: dose: 12.5 mg/kg/injection, schedule: Q01DX009 (ip), vehicle: gum acacia 102 % of control | dose: 25.0 mg/kg/injection, schedule: Q01DX009 (ip), vehicle: gum acacia 89 % of control

COC(=O)C(Br)C(Br)c1ccccc1 (centres undefined)
inactive: [4] 90 % of control | [5] 90 % of control | dose: 400.0 mg/kg/injection, schedule: Q01DX009 (ip), vehicle: saline with Tween-80 90 % of control

CC(C)Oc1ccc2c(c1)N(CCC1CCCCN1)c1ccccc1S2 (centres undefined)
inactive: dose: 1.56 mg/kg/injection, schedule: Q01DX009 (ip), vehicle: Klucel (hydroxypropylcellulose) (HPC) 97 % of control | dose: 3.12 mg/kg/injection, schedule: Q01DX009 (ip), vehicle: Klucel (hydroxypropylcellulose) (HPC) 98 % of control | [10] 112 % of control | [11] 91 % of control | [12] 86 % of control

CCOC(=O)CN=NNc1[nH]ncc1C(N)=O
inactive: dose: 100.0 mg/kg/injection, schedule: Q04DX003 (ip), vehicle: saline with Tween-80 100 % of control | dose: 200.0 mg/kg/injection, schedule: Q04DX003 (ip), vehicle: saline with Tween-80 104 % of control | dose: 400.0 mg/kg/injection, schedule: Q04DX003 (ip), vehicle: saline with Tween-80 111 % of control

Nc1cccc(NC=O)c1
inactive: [6] 102 % of control | [7] 97 % of control | [8] 97 % of control

CCCCNc1ccc(C(=O)O)cc1
inactive: dose: 100.0 mg/kg/injection, schedule: Q04DX003 (ip), vehicle: gum acacia 97 % of control | dose: 200.0 mg/kg/injection, schedule: Q04DX003 (ip), vehicle: gum acacia 97 % of control | dose: 400.0 mg/kg/injection, schedule: Q04DX003 (ip), vehicle: gum acacia 86 % of control

CCOC12c3ccccc3N(S(C)(=O)=O)C(C)C1C2(Br)Br (centres undefined)
inactive: dose: 75.0 mg/kg/injection, schedule: Q04DX003 (ip), vehicle: Klucel (hydroxypropylcellulose) (HPC) 104 % of control | dose: 150.0 mg/kg/injection, schedule: Q04DX003 (ip), vehicle: Klucel (hydroxypropylcellulose) (HPC) 87 % of control | dose: 300.0 mg/kg/injection, schedule: Q04DX003 (ip), vehicle: Klucel (hydroxypropylcellulose) (HPC) 107 % of control

COc1ccccc1N1CCN(CCCC(=O)c2ccc(F)cc2)CC1
inactive: dose: 0.09 mg/kg/injection, schedule: Q04DX003 (ip), vehicle: Klucel (hydroxypropylcellulose) (HPC) 93 % of control | dose: 0.19 mg/kg/injection, schedule: Q04DX003 (ip), vehicle: Klucel (hydroxypropylcellulose) (HPC) 91 % of control | dose: 0.39 mg/kg/injection, schedule: Q04DX003 (ip), vehicle: Klucel (hydroxypropylcellulose) (HPC) 96 % of control | dose: 0.78 mg/kg/injection, schedule: Q04DX003 (ip), vehicle: Klucel (hydroxypropylcellulose) (HPC) 87 % of control | dose: 1.56 mg/kg/injection, schedule: Q04DX003 (ip), vehicle: Klucel (hydroxypropylcellulose) (HPC) 90 % of control | [10] 92 % of control | [11] 92 % of control | [12] 100 % of control | [13] 105 % of control

C=CCOCC(O)CN(CCC(C)C)CCC(C)C (centres undefined)
inactive: dose: 12.5 mg/kg/injection, schedule: Q04DX003 (ip), vehicle: Klucel (hydroxypropylcellulose) (HPC) 91 % of control | dose: 25.0 mg/kg/injection, schedule: Q04DX003 (ip), vehicle: Klucel (hydroxypropylcellulose) (HPC) 91 % of control | dose: 50.0 mg/kg/injection, schedule: Q04DX003 (ip), vehicle: Klucel (hydroxypropylcellulose) (HPC) 95 % of control

C=CCC(CC)C(=O)Cl (centres undefined)
inactive: dose: 12.5 mg/kg/injection, schedule: Q04DX003 (ip), vehicle: other 117 % of control | dose: 25.0 mg/kg/injection, schedule: Q04DX003 (ip), vehicle: other 114 % of control | dose: 50.0 mg/kg/injection, schedule: Q04DX003 (ip), vehicle: other 96 % of control | dose: 100.0 mg/kg/injection, schedule: Q04DX003 (ip), vehicle: other 88 % of control

CCOC(=O)C(Cl)CCl (centres undefined)
inactive: [13] 100 % of control | [14] 100 % of control

NC(=O)c1ncc[nH]c1=O
inactive: [2] 118 % of control | [3] 124 % of control

CC(N)Cc1ccc2c(c1)OCO2 (centres undefined)
inactive: dose: 3.12 mg/kg/injection, schedule: Q01DX009 (ip), vehicle: saline 119 % of control | dose: 6.25 mg/kg/injection, schedule: Q01DX009 (ip), vehicle: saline 116 % of control | [9] 102 % of control | [1] 108 % of control | [2] 116 % of control

Cn1c(N)c(C(=O)/C=C/c2ccccc2)c(=O)n(C)c1=O
inactive: [13] 88 % of control

COc1c2c(cc3c1OCO3)CCN(C)C2
inactive: dose: 10.0 mg/kg/injection, schedule: Q01DX009 (ip), vehicle: saline 95 % of control | dose: 20.0 mg/kg/injection, schedule: Q01DX009 (ip), vehicle: saline 99 % of control | dose: 40.0 mg/kg/injection, schedule: Q01DX009 (ip), vehicle: saline 100 % of control | dose: 80.0 mg/kg/injection, schedule: Q01DX009 (ip), vehicle: saline 91 % of control

Cc1nc2ccc(CCN3CCN(c4ccccc4Cl)CC3)cc2[nH]1
inactive: dose: 4.12 mg/kg/injection, schedule: Q01DX009 (ip), vehicle: saline 90 % of control | dose: 8.25 mg/kg/injection, schedule: Q01DX009 (ip), vehicle: saline 92 % of control
